Values of other authors as cited in article PMC4460250, “Systems Pharmacology Dissecting Holistic Medicine for Treatment of Complex Diseases: An Example Using Cardiocerebrovascular Diseases Treated by TCM” (Evidence-based Complementary and Alternative Medicine : eCAM, 2015).

Details: human; PreHIA data set, value given as fraction; cited from earlier work

For `Nc1ccc(S(=O)(=O)c2ccc(N)cc2)cc1` [Dapsone], the “HIA(Human Intestinal Absorption)” value is listed as 0.9.

Same assay, conditions: in vivo; cited from earlier work

`OC[C@H]1O[C@@H](O[C@@H]2[C@@H](CO)OC(O)(CO)[C@H]2O)[C@H](O)[C@@H](O)[C@H]1O` (mixture of isomers) [Lactulose] and `NCC[C@H](O)C(=O)N[C@@H]1C[C@H](N)[C@@H](O[C@H]2O[C@H](CN)[C@@H](O)[C@H](O)[C@H]2O)[C@H](O)[C@H]1O[C@H]1O[C@H](CO)[C@@H](O)[C@H](N)[C@H]1O` [Amikacin] are the same in “HIA(Human Intestinal Absorption)” value: 0.01 for the first, 0.01 for the second.

`C#C[C@]1(OC(C)=O)CC[C@H]2[C@@H]3CCC4=CC(=NO)CC[C@@H]4[C@H]3CC[C@@]21CC` (mixture of isomers) [Norgestimate] and `C[C@]12C[C@H](O)[C@H]3[C@@H](CCC4=CC(=O)CC[C@@]43C)[C@@H]1CC[C@@H]2C(=O)CO` [Corticosterone] are the same in “HIA(Human Intestinal Absorption)” value: 1 for the first, 1 for the second.

First: CC(=O)Nc1ccc(O)cc1 [Acetaminophen]
Second: CC(=O)Nc1ccccc1 [Acetanilide]
The “HIA(Human Intestinal Absorption)” value of the first is lower: 0.85 for the first, 1 for the second.

Going from `CC(=O)c1ccc(S(=O)(=O)NC(=O)NC2CCCCC2)cc1` [Acetohexamide] to `CC(O)(CS(=O)(=O)c1ccc(F)cc1)C(=O)Nc1ccc(C#N)c(C(F)(F)F)c1` (stereo not shown) [Bicalutamide], the “HIA(Human Intestinal Absorption)” value rises from 0.8 to 0.9.

Going from `Cc1cnc(C(=O)O)c[n+]1[O-]` [Acipimox] to `CC(=O)Oc1ccccc1C(=O)O` [Aspirin], the “HIA(Human Intestinal Absorption)” value falls from 0.95 to 0.82.

First: COc1cc(C)c(/C=C/C(C)=C/C=C/C(C)=C/C(=O)O)c(C)c1C [Acitretin]
Second: CC(=O)Nc1c(I)c(NC(C)=O)c(I)c(C(=O)O)c1I [Diatrizoate]
The “HIA(Human Intestinal Absorption)” value of the first is higher: 0.95 for the first, 0.05 for the second.

First: Oc1ncnc2[nH]ncc12 [Allopurinol]
Second: CCc1cc(C(N)=S)ccn1 [Ethionamide]
The “HIA(Human Intestinal Absorption)” value of the first is lower: 0.8 for the first, 0.9 for the second.

Compared with `C=CCNc1nc(NCC=C)nc(N2CCN(C(c3ccc(F)cc3)c3ccc(F)cc3)CC2)n1` [Almitrine], `COc1ccc(CCN2CCC(Nc3nc4ccccc4n3Cc3ccc(F)cc3)CC2)cc1` [Astemizole] is higher in “HIA(Human Intestinal Absorption)” value: 0.9 for the first, 1 for the second.

Going from `CN(C)CCc1c[nH]c2ccc(CS(=O)(=O)N3CCCC3)cc12` [Almotriptan] to `CN(C)CCCN1c2ccccc2Sc2ccc(Cl)cc21` [Chlorpromazine], the “HIA(Human Intestinal Absorption)” value rises from 0.75 to 0.98.

`CN(C)CCC=C1c2ccccc2CCc2ccccc21` [Amitriptyline] and `CN(C)CC/C=C1\c2ccccc2CSc2ccccc21` [Dothiepin] are the same in “HIA(Human Intestinal Absorption)” value: 0.95 for the first, 0.95 for the second.

First: Nc1cc(-c2ccncc2)c[nH]c1=O [Amrinone]
Second: O=C(O)c1cc(-c2ccc(F)cc2F)ccc1O [Diflunisal]
The “HIA(Human Intestinal Absorption)” value of the first is higher: 0.93 for the first, 0.9 for the second.

Going from `O=C1CN2Cc3c(ccc(Cl)c3Cl)N=C2N1` [Anagrelide] to `Clc1cccc(Cl)c1N=C1NCCN1` [Clonidine], the “HIA(Human Intestinal Absorption)” value rises from 0.7 to 0.95.

Compared with `NCC[C@H](O)C(=O)N[C@@H]1C[C@H](N)[C@@H](O[C@H]2O[C@H](CN)CC[C@H]2N)[C@H](O)[C@H]1O[C@H]1O[C@H](CO)[C@@H](O)[C@H](N)[C@H]1O` [Arbekacin], `CC[C@H]1OC(=O)[C@H](C)[C@@H](O[C@H]2C[C@@](C)(OC)[C@@H](O)[C@H](C)O2)[C@H](C)[C@@H](O[C@@H]2O[C@H](C)C[C@H](N(C)C)[C@H]2O)[C@](C)(O)C[C@@H](C)C(=O)[C@H](C)[C@@H](O)[C@]1(C)O` [Erythromycin] is higher in “HIA(Human Intestinal Absorption)” value: 0.01 for the first, 0.35 for the second.

First: CN1CCC(=C2c3ccccc3CCc3cccnc32)CC1 [Azatadine]
Second: CNCCCN1c2ccccc2CCc2ccccc21 [Desipramine]
The “HIA(Human Intestinal Absorption)” value of the first is lower: 0.9 for the first, 1 for the second.

`CN1CCCC(n2nc(Cc3ccc(Cl)cc3)c3ccccc3c2=O)CC1` (stereo not shown) [Azelastine] and `CN1CCN(CCCCN2C(=O)CN(/N=C/c3ccc(-c4ccc(Cl)cc4)o3)C2=O)CC1` [Azimilide] are the same in “HIA(Human Intestinal Absorption)” value: 1 for the first, 1 for the second.

First: NS(=O)(=O)c1cc2c(cc1C(F)(F)F)NC(Cc1ccccc1)NS2(=O)=O (stereo not shown) [Bendroflumethiazide]
Second: C[N+](C)(CCOc1ccccc1)Cc1ccccc1 [Bephenium]
The “HIA(Human Intestinal Absorption)” value of the first is higher: 1 for the first, 0.05 for the second.

First: CCc1oc2ccccc2c1C(=O)c1cc(Br)c(O)c(Br)c1 [Benzbromarone]
Second: CC/C(=C(/CC)c1ccc(O)cc1)c1ccc(O)cc1 [Diethylstilbestrol]
The “HIA(Human Intestinal Absorption)” value of the first is lower: 0.73 for the first, 0.9 for the second.

Going from `CN(C)CCCOc1nn(Cc2ccccc2)c2ccccc12` [Benzydamine] to `CC(C)COCC(CN(Cc1ccccc1)c1ccccc1)N1CCCC1` (stereo not shown) [Bepridil], the “HIA(Human Intestinal Absorption)” value rises from 0.87 to 1.

Compared with `CNCCc1ccccn1` [Betahistine], `CN(C)CCC(c1ccc(Cl)cc1)c1ccccn1` (stereo not shown) [Chlorpheniramine] is lower in “HIA(Human Intestinal Absorption)” value: 1 for the first, 0.8 for the second.

First: CC(C)NCC(O)COc1ccc(CCOCC2CC2)cc1 (stereo not shown) [Betaxolol]
Second: CC(C)(Oc1ccc(CCNC(=O)c2ccc(Cl)cc2)cc1)C(=O)O [Bezafibrate]
The “HIA(Human Intestinal Absorption)” value of the first is lower: 0.9 for the first, 1 for the second.

First: CC(C[N+](C)(C)C)OC(N)=O (stereo not shown) [Bethanechol]
Second: CCOC(=O)n1ccn(C)c1=S [Carbimazole]
The “HIA(Human Intestinal Absorption)” value of the first is lower: 0.05 for the first, 0.95 for the second.

Going from `CCCC1O[C@@H]2C[C@H]3[C@@H]4CCC5=CC(=O)C=C[C@]5(C)[C@H]4[C@@H](O)C[C@]3(C)[C@]2(C(=O)CO)O1` (stereo partly shown) [Budesonide] to `CC(=O)O[C@]1(C(C)=O)CC[C@H]2[C@@H]3C=C(Cl)C4=CC(=O)[C@@H]5C[C@@H]5[C@]4(C)[C@H]3CC[C@@]21C` [Cyproterone_acetate], the “HIA(Human Intestinal Absorption)” value falls from 1 to 0.98.

Compared with `CCCCCOC(=O)Nc1nc(=O)n([C@@H]2O[C@H](C)[C@@H](O)[C@H]2O)cc1F` [Capecitabine], `COc1cccc2c1C(=O)c1c(O)c3c(c(O)c1C2=O)C[C@@](O)(C(=O)CO)C[C@@H]3O[C@H]1C[C@H](N)[C@H](O)[C@H](C)O1` [Doxorubicin] is lower in “HIA(Human Intestinal Absorption)” value: 0.96 for the first, 0.12 for the second.

Compared with `NC(=O)N1c2ccccc2C=Cc2ccccc21` [Carbamazepine], `CC(C)N(CCC(C(N)=O)(c1ccccc1)c1ccccn1)C(C)C` (stereo not shown) [Disopyramide] is lower in “HIA(Human Intestinal Absorption)” value: 1 for the first, 0.95 for the second.

First: O=NN(CCCl)C(=O)NCCCl [Carmustine]
Second: CCOC(=O)[C@H](CCc1ccccc1)N[C@@H](C)C(=O)N1CCC[C@H]1C(=O)O [Enalapril]
The “HIA(Human Intestinal Absorption)” value of the first is higher: 1 for the first, 0.66 for the second.

First: CC1=C(C(=O)O)N2C(=O)[C@@H](NC(=O)[C@H](N)c3ccc(O)cc3)[C@H]2SC1 [Cefadroxil]
Second: N[C@@H](C(=O)N[C@@H]1C(=O)N2C(C(=O)O)=C(CSc3c[nH]nn3)CS[C@H]12)c1ccc(O)cc1 [Cefatrizine]
The “HIA(Human Intestinal Absorption)” value of the first is higher: 1 for the first, 0.76 for the second.

Compared with `CO[C@@]1(NC(=O)CSCC#N)C(=O)N2C(C(=O)O)=C(CSc3nnnn3C)CS[C@@H]21` [Cefmetazole], `CO/N=C(\C(=O)N[C@@H]1C(=O)N2C(C(=O)O)=C(CSc3nc(=O)c(=O)[nH]n3C)CS[C@H]12)c1csc(N)n1` [Ceftriaxone] is higher in “HIA(Human Intestinal Absorption)” value: 0.1 for the first, 1 for the second.

Going from `CO/N=C(\C(=O)N[C@@H]1C(=O)N2C(C(=O)O)=C(COC(C)=O)CS[C@H]12)c1csc(N)n1` [Cefotaxime] to `CO/N=C(\C(=O)N[C@@H]1C(=O)N2C(C(=O)O)=CCS[C@H]12)c1csc(N)n1` [Ceftizoxime], the “HIA(Human Intestinal Absorption)” value rises from 0.05 to 0.72.

Compared with `COCC1=C(C(=O)OC(C)OC(=O)OC(C)C)N2C(=O)[C@@H](NC(=O)/C(=N\OC)c3csc(N)n3)[C@H]2SC1` (stereo partly shown) [Cefpodoxime_proxetil], `CO/N=C(\C(=O)N[C@@H]1C(=O)N2C(C(=O)O)=C(COC(N)=O)CS[C@H]12)c1ccco1` [Cefuroxime] is higher in “HIA(Human Intestinal Absorption)” value: 0.5 for the first, 1 for the second.

First: CC1=C(C(=O)O)N2C(=O)[C@@H](NC(=O)[C@H](N)C3=CCC=CC3)[C@H]2SC1 [Cephradine]
Second: CCOC(=O)[C@H](CCc1ccccc1)N[C@H]1CCCN2CCC[C@@H](C(=O)O)N2C1=O [Cilazapril]
The “HIA(Human Intestinal Absorption)” value of the first is higher: 0.95 for the first, 0.59 for the second.

Compared with `[H]/N=C(\N/C(=N/[H])Nc1ccc(Cl)cc1)NC(C)C` [Chlorguanide], `[H]/N=C(\N/C(=N/[H])NCCCCCCNC(=N)NC(=N)Nc1ccc(Cl)cc1)Nc1ccc(Cl)cc1` [Chlorhexidine] is lower in “HIA(Human Intestinal Absorption)” value: 0.85 for the first, 0.05 for the second.

`CCC#CC[C@H](C)[C@H](O)C#C[C@@H]1[C@H]2C/C(=C/COCC(=O)O)C[C@H]2C[C@H]1O` [Cicaprost] and `COc1ccc([C@]2(C#N)CC[C@@H](C(=O)O)CC2)cc1OC1CCCC1` [Cilomilast] are the same in “HIA(Human Intestinal Absorption)” value: 1 for the first, 1 for the second.

Compared with `CN/C(=N/CCSCc1nc[nH]c1C)NC#N` [Cimetidine], `CSc1ccc(C(=O)c2[nH]c(=O)[nH]c2C)cc1` [Enoximone] is higher in “HIA(Human Intestinal Absorption)” value: 0.64 for the first, 0.8 for the second.

First: COc1cc(N)c(Cl)cc1C(=O)NC1CCN(CCCOc2ccc(F)cc2)CC1OC (stereo not shown) [Cisapride]
Second: CCOC(=O)C(C)(C)Oc1ccc(Cl)cc1 [Clofibrate]
The “HIA(Human Intestinal Absorption)” value of the first is higher: 1 for the first, 0.97 for the second.

Compared with `O=P(O)(O)C(Cl)(Cl)P(=O)(O)O` [Clodronate], `CC1=NS(=O)(=O)c2cc(Cl)ccc2N1` [Diazoxide] is higher in “HIA(Human Intestinal Absorption)” value: 0.03 for the first, 0.9 for the second.

First: OCCN1CCN(CCC=C2c3ccccc3Sc3ccc(Cl)cc32)CC1 [Clopenthixol]
Second: O=C1CN(/N=C/c2ccc(-c3ccc([N+](=O)[O-])cc3)o2)C(O)=N1 [Dantrolene]
The “HIA(Human Intestinal Absorption)” value of the first is higher: 0.95 for the first, 0.8 for the second.

Going from `N[C@@H]1CON=C1O` [Cycloserine] to `CO[C@H]1C[C@H](O[C@H]2CC[C@]3(C=O)[C@H]4CC[C@]5(C)[C@@H](C6=CC(=O)OC6)CC[C@]5(O)[C@@H]4CC[C@]3(O)C2)O[C@H](C)[C@H]1O` [Cymarin], the “HIA(Human Intestinal Absorption)” value falls from 0.73 to 0.47.

In the case of `OCCN(CCO)c1nc(N2CCCCC2)c2nc(N(CCO)CCO)nc(N3CCCCC3)c2n1` [Dipyridamole], the “HIA(Human Intestinal Absorption)” value is listed as 0.58.
